Measurements as given in US20250171459A1, “2-METHYL-4',5'-DIHYDROSPIRO[PIPERIDINE-4,7'-THIENO[2,3-C]PYRAN] DERIVATIVES AS INHIBITORS OF APOL1 AND METHODS OF USING SAME” (Vertex Pharmaceuticals Incorporated, priority 2022, published 2025).

biological target: T1, APOL1 (Homo sapiens, UniProt O14791); test: MultiTox-Fluor Multiplex Cytotoxicity Assay in tet-inducible APOL1 T-REx-HEK293 cells (cell rescue, ratio of dead to live cells); type: cell-based; conditions: tet-inducible transgenic APOL1 T-REx-HEK293 cell lines, 50 ng/mL tet, 24 hours; read-out: IP50 (i.e., IC50 for cell proliferation)
T1 sequence (O14791 1-398 S342G/I384M): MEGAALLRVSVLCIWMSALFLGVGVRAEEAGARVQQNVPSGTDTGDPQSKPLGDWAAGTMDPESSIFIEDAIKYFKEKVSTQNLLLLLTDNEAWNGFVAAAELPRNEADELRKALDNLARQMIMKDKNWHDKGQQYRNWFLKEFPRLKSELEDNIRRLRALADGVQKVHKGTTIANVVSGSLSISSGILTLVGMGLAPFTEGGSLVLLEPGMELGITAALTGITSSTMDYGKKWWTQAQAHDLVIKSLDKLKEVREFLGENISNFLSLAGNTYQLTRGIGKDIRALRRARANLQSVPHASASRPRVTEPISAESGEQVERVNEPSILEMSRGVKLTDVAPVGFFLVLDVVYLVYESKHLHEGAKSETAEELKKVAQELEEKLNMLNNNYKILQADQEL
Procedure, shortened: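 T-REx-HEK293 cells with tet-inducible APOL1 were treated with compound (10 μM top, 10-point 3-fold dilution, duplicate) plus 50 ng/mL tetracycline for 24 h at 37° C, in DMEM with 2% tet-free FBS. MultiTox-Fluor protease signals gave a dead/live ratio, normalized to no tet (100% viability) and tet alone (0%).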

Structure (SMILES)	IC50
C[C@H]1C[C@@]2(CCN1Cc1cn(CCS(C)(=O)=O)nn1)OCCc1cc(C(F)(F)F)sc12 [Compound 870, (2′S, 7R)-2′-methyl-1′-[[1-(2-methylsulfonylethyl)triazol-4-yl]methyl]-2-(trifluoromethyl)spiro[4,5-dihydrothieno[2,3-c]pyran-7,4′-piperidine]]	< 100 nM
C[C@H]1C[C@@]2(CCN1Cc1cnn(C3CCS(=O)(=O)C3)c1)OCCc1c2sc(C(F)(F)F)c1CO (stereo partly drawn) [Compound 911, [(2′S, 7R)-1′-[[1-(1,1-dioxothiolan-3-yl)pyrazol-4-yl]methyl]-2′-methyl-2-(trifluoromethyl)spiro[4,5-dihydrothieno[2,3-c]pyran-7,4′-piperidine]-3-yl]methanol]	< 100 nM
CCc1cc2c(s1)CCO[C@@]21CCN(Cc2cnc(N[C@H]3CC[C@H](O)C3)nc2)[C@@H](C)C1 [Compound 204]	< 100 nM
C[C@H]1C[C@@]2(CCN1Cc1cnn(CC(=O)NC3CC3)c1)OCCc1c2sc(C(F)(F)F)c1CO [Compound 903]	< 100 nM
CCc1cc2c(s1)CCO[C@@]21CCN(C[C@H]2C[C@@H](NC(C)=O)C2)[C@@H](C)C1 [Compound 384]	100 to 500 nM
CCc1cc2c(s1)CCOC21CCN(Cc2cnn(C)c2)C2(CCC2)C1 (centres unmarked) [Compound 1042, 2″-ethyl-1′-((1-methyl-1H-pyrazol-4-yl)methyl)-6″,7″-dihydrodispiro[cyclobutane-1,2′-piperidine-4′,4″-thieno[3,2-c]pyran]]	100 to 500 nM
COCCc1ncc(CN2CC[C@]3(C[C@@H]2C)OCCc2c3sc(Cl)c2CO)cn1 [Compound 745]	100 to 500 nM
CCc1cc2c(s1)CCO[C@@]21CCN(CC(C)(C)O)[C@@H](C)C1 [Compound 236]	100 to 500 nM
CCc1cc2c(s1)CCO[C@@]21CCN(CC(O)CO)[C@@H](C)C1 (some centres unmarked) [Compound 281]	100 to 500 nM
CCc1cc2c(s1)CCOC21CCN(Cc2ccc(C(=O)NCC(C)O)nc2)CC1 (centres unmarked) [Compound 1061]	100 to 500 nM
CCc1cc2c(s1)CCO[C@@]21CCN(CC2CN(C(=O)N(C)C)C2)[C@@H](C)C1 [Compound 490]	500 to 1000 nM
CCc1cc2c(s1)CCO[C@@]21CCN(Cc2cn(CC3(C)CCOCC3)nn2)[C@@H](C)C1 [Compound 114]	100 to 500 nM
CCc1cc2c(s1)CCOC21CCN(Cc2cn(CCS(N)(=O)=O)nn2)CC1 [Compound 1080]	100 to 500 nM
C[C@H]1C[C@@]2(CCN1C1CCCC1O)OCCc1cc(C(F)(F)F)sc12 (stereo partly drawn) [Compound 865, 2-[(2′S,7R)-2′-methyl-2-(trifluoromethyl)spiro[4,5-dihydrothieno[2,3-c]pyran-7,4′-piperidine]-1′-yl]cyclopentanol]	100 to 500 nM
CCc1cc2c(s1)CCO[C@@]21CCN(C[C@H]2C[C@@H](NC(=O)OCCOC)C2)[C@@H](C)C1 [Compound 374]	100 to 500 nM
CCc1cc2c(s1)CCO[C@@]21CCN(Cc2cnc(NC(C)(C)CO)nc2)[C@@H](C)C1 [Compound 201, 2-[[5-[[(2′S,4R)-2-ethyl-2′-methyl-spiro[6,7-dihydrothieno[3,2-c]pyran-4,4′-piperidine]-1′-yl]methyl]pyrimidin-2-yl]amino]-2-methyl-propan-1-ol]	< 100 nM
C[C@H]1C[C@@]2(CCN1Cc1cnn(CC3(C)COC3)c1)OCCc1c2sc(C(F)(F)F)c1CO [Compound 910]	100 to 500 nM
C[C@H]1C[C@@]2(CCN1Cc1cnn(CC(O)CO)c1)OCCc1c2sc(C(F)(F)F)c1CO (some centres unmarked) [Compound 934]	< 100 nM
C[C@H]1C[C@@]2(CCN1Cc1cnn(CCS(C)(=O)=O)c1)OCCc1cc(C3CCC3)sc12 [Compound 1033, (2′S,7R)-2-cyclobutyl-2′-methyl-1′-[[1-(2-methylsulfonylethyl)pyrazol-4-yl]methyl]spiro[4,5-dihydrothieno[2,3-c]pyran-7,4′-piperidine]]	< 100 nM
C[C@H]1C[C@@]2(CCN1Cc1cnn(CC(C)(CO)CO)c1)OCCc1c2sc(C(F)(F)F)c1CO [Compound 876]	< 100 nM
CCc1cc2c(s1)CCO[C@@]21CCN(Cc2cn(CC3COCCO3)nn2)[C@@H](C)C1 (some centres unmarked) [Compound 136]	< 100 nM
CCc1cc2c(s1)CCOC21CCN(Cc2cn(C3CS(=O)(=O)C3)nn2)CC1 [Compound 1183]	500 to 1000 nM
CCc1cc2c(s1)CCO[C@@]21CCN(Cc2cn(Cc3c[nH]nc3C)nn2)[C@@H](C)C1 [Compound 57]	< 100 nM
C[C@H]1C[C@@]2(CCN1Cc1cnc(N3CCOCC3)nc1)OCCc1c2sc(Cl)c1CO [Compound 728]	< 100 nM
CCc1cc2c(s1)CCOC21CCN(Cc2cn(CC(c3cccnc3)N3CCOCC3)nn2)C(C)C1 (centres unmarked) [Compound 92]	500 to 1000 nM
C[C@H]1C[C@@]2(CCN1Cc1cn(CCS(C)(=O)=O)nn1)OCC(=O)c1cc(Cl)sc12 [Compound 822, (2S,4R)-2′-chloro-2-methyl-1-[[1-(2-methylsulfonylethyl)triazol-4-yl]methyl]spiro[piperidine-4,7′-thieno[2,3-c]pyran]-4′-one]	100 to 500 nM
CCc1cc2c(s1)CCOC21CCN(Cc2ccc(S(C)(=O)=O)cc2F)CC1 [Compound 1154]	500 to 1000 nM

Structure (SMILES)	IC50
C[C@H]1C[C@@]2(CCN1Cc1cnn(CCS(C)(=O)=O)c1)OCC(O)c1cc(Cl)sc12 (stereo partly drawn) [Compound 767, (2′S,7R)-2-chloro-2′-methyl-1′-[[1-(2-methylsulfonylethyl)pyrazol-4-yl]methyl]spiro[4,5-dihydrothieno[2,3-c]pyran-7,4′-piperidine]-4-ol]	< 100 nM
CCc1cc2c(s1)[C@]1(CCN(Cc3cn(CCS(C)(=O)=O)nn3)[C@@H](C)C1)OCC2O (stereo partly drawn) [Compound 1038, (2′S,7R)-2-ethyl-2′-methyl-1′-[[1-(2-methylsulfonylethyl)triazol-4-yl]methyl]spiro[4,5-dihydrothieno[2,3-c]pyran-7,4′-piperidine]-4-ol]	< 100 nM
Cc1nccn1-c1ccc(CN2CC[C@]3(C[C@@H]2C)OCCc2c3sc(Cl)c2CO)cc1 [Compound 717]	100 to 500 nM
CCc1cc2c(s1)CCO[C@@]21CCN(Cc2cn(C3CCCN(S(C)(=O)=O)C3)nn2)[C@@H](C)C1 (some centres unmarked) [Compound 28]	100 to 500 nM
CCc1cc2c(s1)CCO[C@@]21CCN(C[C@H]2C[C@@H](NC(=O)Oc3ccc(OC)cc3)C2)[C@@H](C)C1 [Compound 379]	< 100 nM
CCc1cc2c(s1)CCO[C@@]21CCN(Cc2cnc(OCC3(N)CCCCC3)nc2)[C@@H](C)C1 [Compound 227]	< 100 nM
CCc1cc2c(s1)CCO[C@@]21CCN(Cc2cn(C[C@H](C)O)nn2)[C@@H](C)C1 [Compound 141]	100 to 500 nM
C[C@H]1C[C@@]2(CCN1Cc1cnn(CCS(C)(=O)=O)c1)OCC(O)c1cc(Cl)sc12 (single isomer, unassigned) [Compound 769]	< 100 nM
CCCC(O)Cn1cc(CN2CC[C@]3(C[C@@H]2C)OCCc2sc(CC)cc23)nn1 (some centres unmarked) [Compound 85]	< 100 nM
C[C@H]1C[C@@]2(CCN1Cc1cccc(Cl)c1O)OC[C@H](O)c1cc(Cl)sc12 [Compound 766, (2′S,4R,7R)-2-chloro-1′-[(3-chloro-2-hydroxy-phenyl)methyl]-2′-methyl-spiro[4,5-dihydrothieno[2,3-c]pyran-7,4′-piperidine]-4-ol]	500 to 1000 nM
CCc1cc2c(s1)CCO[C@@]21CCN(Cc2cn(C3CCN(S(C)(=O)=O)CC3)nn2)[C@@H](C)C1 [Compound 20]	100 to 500 nM
CCc1cc2c(s1)CCO[C@@]21CCN(CC2CN(C(=O)c3n[nH]c(=O)[nH]3)C2)[C@@H](C)C1 [Compound 486]	100 to 500 nM
CCc1cc2c(s1)CCO[C@@]21CCN(CC2CN(C(=O)CC3CCS(=O)(=O)CC3)C2)[C@@H](C)C1 [Compound 444]	< 100 nM
CCc1cc2c(s1)CCO[C@@]21CCN(C[C@H]2C[C@@H](NC(=O)CC3CC(F)(F)C3)C2)[C@@H](C)C1 [Compound 338]	< 100 nM
CCc1cc2c(s1)CCO[C@@]21CCN(C[C@H]2C[C@@H](NS(=O)(=O)c3ccc(OC)cc3)C2)[C@@H](C)C1 [Compound 402]	< 100 nM
CCc1cc2c(s1)CCOC21CCN(Cc2cn(Cc3cc(C(N)=O)co3)nn2)CC1 [Compound 1106]	500 to 1000 nM
CC(=CC(O)Cn1cc(CN2CC[C@]3(C[C@@H]2C)OC[C@@H](O)c2cc(C(F)(F)F)sc23)cn1)C1CC1 (some centres unmarked) [Compound 980]	100 to 500 nM
CCc1cc2c(s1)CCO[C@@]21CCN(CC2CN(C(=O)c3cc(C(F)F)[nH]n3)C2)[C@@H](C)C1 [Compound 461]	< 100 nM
Cc1cnc(Cn2cc(CN3CC[C@]4(C[C@@H]3C)OCCc3c4sc(C(F)(F)F)c3CO)cn2)cn1 [Compound 912]	< 100 nM
CCc1cc2c(s1)CCO[C@@]21CCN(Cc2cn(C3C[C@@H](CO)NC3=O)nn2)[C@@H](C)C1 (some centres unmarked) [Compound 166]	500 to 1000 nM
C[C@H]1C[C@@]2(CCN1Cc1cnn(CC(O)C3(O)CCCC3)c1)OCCc1c2sc(C(F)(F)F)c1CO (some centres unmarked) [Compound 955]	< 100 nM
CCc1cc2c(s1)CCO[C@@]21CCN(Cc2cn(CC3(O)CCOCC3)nn2)[C@@H](C)C1 [Compound 190]	< 100 nM
C[C@H]1C[C@@]2(CCN1C1CCCC1O)OCCc1cc(CC(F)F)sc12 (some centres unmarked) [Compound 595]	< 100 nM
CCc1cc2c(s1)CCO[C@@]21CCN(CC2CN(C(=O)CNC(C)=O)C2)[C@@H](C)C1 [Compound 480]	100 to 500 nM
C[C@H]1C[C@@]2(CCN1CC1CNC(=O)C1)OCCc1cc(CC(F)F)sc12 (some centres unmarked) [Compound 621]	< 100 nM
C[C@H]1C[C@@]2(CCN1Cc1cn(C)cn1)OCCc1cc(CC(F)F)sc12 [Compound 573]	100 to 500 nM
